In brackets after ≈: the same amount, converted by molar mass. Activity calls are given as the source filed them. The rule behind the calls is not given here.
Assays:
[1] = system: Mycobacterium tuberculosis; assay: Antimycobacterial activity was assessed against Mycobacterium tuberculosis H37Ra using theMicroplate Alamar Blue Assay (MABA); NA means inactive at 200 ug/mL; format: functional, organism-based
Plasmodium falciparum [2] = assay: Antimalarial activity against multidrug-resistant Plasmodium falciparum K1; format: functional, organism-based
BC1 cell line [3] = assay: Cytotoxic activity against human breast cancer cells of BC-1 cell lines; format: functional, cell-based
KB [4] = assay: Cytotoxic activity against human epidermoid carcinoma cells of KB cell lines in mouth; format: functional, cell-based
Plasmodium falciparum [5] = assay: Antimalarial activity against multidrug-resistant Plasmodium falciparum K1; Not active at 20 ug/mL; format: functional, organism-based
BC1 cell line [6] = assay: Cytotoxic activity against human breast cancer cells of BC-1 cell lines; NA means inactive at 20 ug/mL; format: functional, cell-based
KB [7] = assay: Cytotoxic activity against human epidermoid carcinoma cells of KB cell lines in mouth; NA means inactive at 20 ug/mL; format: functional, cell-based
[8] = system: Mycobacterium tuberculosis; assay: Antimycobacterial activity was assessed against Mycobacterium tuberculosis H37Ra using theMicroplate Alamar Blue Assay (MABA); format: functional

C[C@H]1Cc2c(C(=O)O)ccc(O)c2C(=O)O1
MIC [1]: inactive | IC50 (Plasmodium falciparum [2]): 4 µg/mL (≈ 18 µM) | IC50 (BC1 cell line [3]): 3 µg/mL (≈ 13.5 µM) | IC50 (KB [4]): 3 µg/mL (≈ 13.5 µM)

CC(=O)O[C@@H]1/C=C/[C@@](C)(O)C(=O)[C@@H](C)C/C=C/[C@H]2[C@@H]3O[C@]3(C)[C@@H](C)[C@H]3[C@H](Cc4ccccc4)NC(=O)[C@@]312 [CYTOCHALASIN Q]
MIC [1]: inactive | IC50 (Plasmodium falciparum [2]): 17 µg/mL (≈ 33.5 µM) | IC50 (BC1 cell line [3]): 1 µg/mL (≈ 1.97 µM) | IC50 (KB [4]): 3 µg/mL (≈ 5.91 µM)

CCCCC/C=C(/C(=O)O)C(C)C(=O)OC (centres undefined)
MIC [1]: inactive | IC50 (Plasmodium falciparum [5]): Not Active | IC50 (BC1 cell line [6]): Not Active | IC50 (KB [7]): Not Active

C/C(=C\[C@H](O)[C@H](O)[C@H](C)C1=CC[C@@]2(C)C[C@@H]3[C@H](C)CC[C@@H]3/C(C(=O)O)=C\C[C@H]12)C(=O)O
IC50 (Plasmodium falciparum [2]): 13 µg/mL (≈ 30.1 µM) | IC50 (BC1 cell line [6]): Not Active | IC50 (KB [7]): Not Active | MIC [8]: 200 µg/mL (≈ 462 µM)

C/C(=C\C1OC(C)(C)O[C@@H]1[C@H](C)C1=CC[C@@]2(C)C[C@@H]3[C@H](C)CC[C@@H]3/C(C(=O)O)=C\C[C@H]12)C(=O)O (some centres undefined)
IC50 (Plasmodium falciparum [2]): 19 µg/mL (≈ 40.2 µM) | IC50 (BC1 cell line [6]): Not Active | IC50 (KB [7]): Not Active | MIC [8]: 200 µg/mL (≈ 423 µM)

CCCCC/C=C(/C(=O)O)C(C)C(=O)O (centres undefined)
MIC [1]: inactive | IC50 (Plasmodium falciparum [5]): Not Active | IC50 (BC1 cell line [3]): 5 µg/mL (≈ 23.3 µM) | IC50 (KB [4]): 13 µg/mL (≈ 60.7 µM)
